Measurements reported in PMC5540198, “A phase I trial of ganetespib in combination with paclitaxel and trastuzumab in patients with human epidermal growth factor receptor-2 (HER2)-positive metastatic breast cancer” (Breast Cancer Research : BCR, 2017).
Read-outs that look alike come from different tables or passages of the source. Marks after values point to notes of the source that are not given here.

Key:
[1] = design: method as in earlier work; conditions: PET agent labelled with ^124I; cited from earlier work
[2] = Pharmacokinetics of paclitaxel in plasma, cycle 1 day 8 to day 9; assay type: in vivo, human
Method: Blood samples for determination of plasma concentrations of paclitaxel were collected on cycle 1, day 8 through cycle 1, day 9 at the following time points after trastuzumab infusion and relative to the start of the paclitaxel infusion: 5 minutes prior to treatment, and 30 and 60 minutes (immediately prior to stopping the paclitaxel infusion pump and starting the ganetespib infusion) after start of paclitaxel infusion. Blood samples were also collected at the following time points after starting ganetespib infusion: 1.5, 2, 4, 7, 21, 24, 27, and 31 hours. Each blood sample (3–5 ml) was collected in sodium heparin tubes and transferred into two polypropylene tubes (1 ml each) and stored at –80 °C. PK were performed in collaboration with Synta Pharmaceuticals, Inc. PK parameters of paclitaxel (such as the area under the curve (AUC) and the maximum serum concentration (Cmax)) were examined descriptively to evaluate the effect of ganetespib on these measures.

[3] = system: patients with HER2-positive metastatic breast cancer; assay: Phase I dose-escalation trial: safety, DLT and RP2D of ganetespib with paclitaxel and trastuzumab; assay type: in vivo, human
Description: Patients were eligible if they were aged ≥ 18 years, had locally advanced or metastatic HER2-positive disease (defined as FISH ratio ≥ 2.0 or immunohistochemistry (IHC) 3+), ECOG ≤ 2, measurable disease per RECIST 1.1 [23], and adequate end organ function (defined as hemoglobin ≥ 9 g/dl, absolute neutrophil count (ANC) ≥ 1.5 × 10^9/L, platelets ≥ 100 × 10^9/L, bilirubin ≤ 1.5 upper limit of normal (ULN), aspartate aminotransferase (AST) and alanine aminotransferase (ALT) ≤ 2.5 ULN, and serum creatinine ≤ 1.5 ULN). Patients must have received prior trastuzumab and those with estrogen receptor (ER)-positive disease must have received prior endocrine therapy. Any number of prior lines of chemotherapy in the metastatic setting was allowed. Progression on prior treatment with pertuzumab and T-DM1 was required (unless heavily pretreated prior to FDA approval of pertuzumab for first-line treatment of HER2-positive metastatic breast cancer (6/2012) and/or T-DM1 (2/2013)).
Patients received intravenous infusions of trastuzumab and paclitaxel with ganetespib on days 1, 8, and 15 and of trastuzumab and paclitaxel on day 22 of a 28-day cycle. The sequence of administration was trastuzumab (2 mg/kg) followed by paclitaxel (80 mg/m^2) followed by ganetespib. If the patient’s last dose of trastuzumab was >21 days before enrollment, they received a loading dose of trastuzumab at 4 mg/kg over 90 minutes. Ganetespib was then administered intravenously over 60 minutes. The starting dose of ganetespib was 100 mg/m^2, and if there were no DLTs the next cohort would escalate to 150 mg/m^2. A further dose level of 125 mg/m^2 was incorporated in the circumstance of good tolerance of the 100 mg/m^2 but poor tolerance of the 150 mg/m^2 dose levels. There was no dose escalation for paclitaxel and trastuzumab. Therapy was continued until disease progression or unacceptable toxicity.
Patients were examined and assessed for toxicities during and prior to each cycle. Toxicity was graded according to National Cancer Institute (NCI) CTCAE version 4.0 (http://ctep.cancer.gov/protocolDevelopment/electronic_applications/ctc.htm#ctc_40). Patients were evaluated for DLT during cycle 1. DLT was defined as any drug-related grade ≥ 4 nonhematologic adverse events (AEs) or any grade 3 nonhematologic AEs not improving to baseline or grade ≤ 1 by day 14; grade 4 neutropenia lasting ≥ 7 days, or febrile neutropenia, grade 4 thrombocytopenia, or any grade 3 thrombocytopenia that has not recovered to grade ≤ 2 by day 7; or any treatment-related toxicity prompting a dose reduction of ganetespib during the DLT observation period.
Paclitaxel dose reductions were not permitted during the DLT observation period. For dosing beyond cycle 1, paclitaxel was held if patients experienced any other grade 3 or 4 toxicity thought to be related to paclitaxel until symptoms resolved to grade 1/baseline grade. One dose reduction for paclitaxel to 65 mg/m^2 was permitted.

[4] = system: HER2-positive and ER-positive breast cancer; design: method as in PMID 18430202; conditions: intravenous, single agent; among 10 patients; cited from earlier work
[5] = system: trastuzumab-refractory HER2-positive metastatic breast cancer; design: method as in PMID 18048823, PMID 21558407; conditions: in combination with trastuzumab; cited from earlier work
[6] = system: HER2-positive metastatic breast cancer; design: method as in PMID 22781552; conditions: plus trastuzumab; cited from earlier work
[7] = system: HER2-positive breast cancer; design: method as in PMID 23580070; conditions: in combination with trastuzumab; cited from earlier work
metastatic breast cancer = system: metastatic breast cancer; design: method as in PMID 24512858; conditions: cited from earlier work
[8] = system: HER2-positive metastatic breast cancer; assay: Phase I trial: anti-tumor activity by RECIST 1.1; assay type: in vivo, human
Method: The sequence of administration was trastuzumab (2 mg/kg) followed by paclitaxel (80 mg/m^2) followed by ganetespib. If the patient’s last dose of trastuzumab was >21 days before enrollment, they received a loading dose of trastuzumab at 4 mg/kg over 90 minutes. Ganetespib was then administered intravenously over 60 minutes. The starting dose of ganetespib was 100 mg/m^2, and if there were no DLTs the next cohort would escalate to 150 mg/m^2. A further dose level of 125 mg/m^2 was incorporated in the circumstance of good tolerance of the 100 mg/m^2 but poor tolerance of the 150 mg/m^2 dose levels. There was no dose escalation for paclitaxel and trastuzumab. Therapy was continued until disease progression or unacceptable toxicity. Patients were evaluated for response initially after two cycles and then every three cycles thereafter using the RECIST criteria. All patients with PR or complete response (CR) were required to have confirmation of response 4 weeks after the criteria for response were first met. The best overall response was defined as the best response recorded from the start of treatment until disease progression or withdrawal from the study. […] The CBR was defined as the proportion of patients whose best overall response, according to RECIST, was CR, PR, or SD lasting for at least 24 weeks.

CC(C)NCCCn1c(Sc2cc3c(cc2[124I])OCO3)nc2c(N)ncnc21 [^124I-PU-H71]
half-life [1]: 96.5 h

CC(=O)O[C@H]1C(=O)[C@@]2(C)[C@H]([C@H](OC(=O)c3ccccc3)[C@]3(O)C[C@H](OC(=O)[C@H](O)[C@@H](NC(=O)c4ccccc4)c4ccccc4)C(C)=C1C3(C)C)[C@]1(OC(C)=O)CO[C@@H]1C[C@@H]2O [paclitaxel]
Tmax ([2]; human, in vivo, iv): 1.0 ± 0.0 h
half-life ([2]; human, in vivo, iv): 13.6 ± 3.3 h
Tmax ([2]; human, in vivo, iv, Tmax): 0.8 ± 0.3 h
Cmax ([2]; human, in vivo, iv, paclitaxel 80 mg/m^2 i.v., ganetespib 100 mg/m^2, n=3): 3340 ± 1270 ng/mL
T1/2 ([2]; paclitaxel 80 mg/m^2 i.v., ganetespib 100 mg/m^2, n=3): 12.9 ± 0.4 h
Grade 3 blurred vision/grade 3 dry eyes (in same patient), N patients ([3]; of nine patients, attributable to paclitaxel): 1^a

CCNC(=O)c1noc(-c2cc(C(C)C)c(O)cc2O)c1-c1ccc(CN2CCOCC2)cc1 [NVP-AUY922]
confirmed PR by RECIST, number [4]: one
partial metabolic responses on FDG-PET, number [4]: two

C=CCNC1=C2C[C@@H](C)C[C@H](OC)[C@H](O)[C@@H](C)/C=C(\C)[C@H](OC(N)=O)[C@@H](OC)/C=C\C=C(/C)C(=O)NC(=CC1=O)C2=O [tanespimycin]
clinical benefit rate (CBR) [5]: 59%
response rate [5]: 22%

CO[C@H]1/C=C\C=C(/C)C(=O)NC2=CC(=O)C(NCCN(C)C)=C(C[C@@H](C)C[C@H](OC)[C@H](O)[C@@H](C)/C=C(\C)[C@@H]1OC(N)=O)C2=O [alvespimycin]
partial response (PR), number of cases [6]: one
stable disease (SD) lasting >6 months, number of cases [6]: six

C=CCNc1c(O)cc2c(O)c1C[C@@H](C)C[C@H](OC)[C@H](O)[C@@H](C)/C=C(\C)[C@H](OC(N)=O)[C@@H](OC)/C=C\C=C(/C)C(=O)N2 [retaspimycin]
patients with stable disease [7]: 62%

CC(C)c1cc(-c2n[nH]c(=O)n2-c2ccc3c(ccn3C)c2)c(O)cc1O [ganetespib, 5-(2,4-dihydroxy-5-(1-methylethyl)phenyl)-4-(1-methyl-1H-indol-5-yl)-2,4-dihydro-(1,2,4)triazol-3-one]
ORR (metastatic breast cancer; single-agent ganetespib): 15%
cases of SD in HER2-positive patients, number (metastatic breast cancer; single-agent, HER2-positive metastatic breast cancer): six
confirmed PRs, number (metastatic breast cancer; single-agent, HER2-positive, trastuzumab-refractory metastatic breast cancer): two
SDs, total number (metastatic breast cancer; single-agent, six HER2-positive and one TNBC): seven
overall response rate (ORR), confirmed partial responses ([8]; ganetespib 100 or 150 mg/m^2 days 1, 8, 15 with weekly paclitaxel 80 mg/m^2 and trastuzumab 2 mg/kg, 2/9 patients, both in 150 mg/m^2 cohort): 22%
clinical benefit rate (CBR: CR, PR or SD at least 24 weeks) ([8]; triplet regimen, 4/9 patients): 44%
median progression-free survival ([8]; triplet regimen, nine patients): 20 weeks
progression-free survival, range ([8]; triplet regimen, nine patients): 8–55 weeks
recommended phase II dose (RP2D) ([3]; in combination with weekly paclitaxel plus trastuzumab): 150 mg/m^2
anemia, grade 1/2, drug-related ([3]; nine patients): 44%
diarrhea, grade 1/2, drug-related ([3]; nine patients): 78%
elevated AST or ALT, grade 1/2, drug-related ([3]; nine patients): 32%
fatigue, grade 1/2, drug-related ([3]; nine patients): 67%
nausea, grade 1/2, drug-related ([3]; nine patients): 32%
rash, grade 1/2, drug-related ([3]; nine patients): 32%
grade 4 AEs related to ganetespib ([3]; nine patients, CTCAE 4.0): no grade 4 AEs
patients with dose-limiting toxicities (DLTs) ([3]; nine patients, cycle 1, 100 and 150 mg/m^2 cohorts): None
Grade 3 ALT, increased, N patients ([3]; of nine patients): 1
Grade 3 phosphorus, decreased, N patients ([3]; of nine patients): 1
Grade 3 pruritus, N patients ([3]; of nine patients): 1
